The subject of experiment [1] is BT-474. To be noted: 72 h. Summed up: (§1)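 Seeding of breast cancer cell lines (20 µl suspension) was done into 384-well plates pre-loaded with compound at 5 concentrations, 10-fold apart, covering a compound-specific 10,000-fold range. The plates were incubated for 72 h, read for CellTox Green fluorescence (485/520 nm), and then read for CellTiter-Glo luminescence after 10 min at room temperature. Every plate was normalised to 0.1 % DMSO and a positive kill control. Curve fitting gave the EC50, censored at the top concentration.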

Experiment [2] relates to MDA-MB-468. Conditions: 72 h. Put shortly: as §1
Experiment [3] deals with CAL-51. Conditions: 72 h. Put shortly:
as §1

Experiment [4] has as its system CAL-148. Briefly: normalised viability (% of control), CellTiter-Blue; higher = more viable cells (about 100 = DMSO control). Conditions: incubation time: 72 h. The method, then:
(§2)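 DSRT, CellTiter-Blue viability, 72 h incubation. Signal is normalised to DMSO and benzethonium chloride controls. Value is the normalised response at dose 9.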

For experiment [5], the system named is CAL-51. The description is as above. Conditions: incubation time: 72 h. The method, then: as §2
In experiment [6] the test system is CAL-85-1. The experiment is described as above. To be noted: incubation time: 72 h. The method, then:
as §2

Experiment [7] has as its system DU-4475. Described as above. Conditions: incubation time: 72 h. On the procedure: as §2
Experiment [8] deals with HDQ-P1. Described as above. To be noted: incubation time: 72 h. On the procedure:
as §2

In experiment [9] the test system is MDA-MB-453. The description is as above. Conditions: incubation time: 72 h. The method, then: as §2
In experiment [10] the test system is BT-474. Put plainly: normalised response (% of control), CellTiter-Glo; higher = more viable cells (100 = DMSO, 0 = benzethonium chloride kill control). To be noted: incubation time: 72 h. Put shortly: (§3)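 For each plate, 0.1 % DMSO was set to 100 and a positive kill control to 0. Breast cancer cell lines (20 µl suspension) were seeded into 384-well plates already holding compound at 5 concentrations in 10-fold steps over a 10,000-fold range chosen per compound, and incubated for 72 h. CellTox Green fluorescence at 485/520 nm was read before CellTiter-Glo luminescence, which followed 10 min at room temperature. Each value is the normalised signal at one concentration.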
For orientation: Cellular ATP, detected with luciferase, serves as a proxy for viable cell number.

The test system of experiment [11] is BT-549. Described as above. Conditions: incubation time: 72 h. Summed up: as §3
Experiment [12] has as its system CAL-120. Described as above. To be noted: incubation time: 72 h. Put shortly:
as §3

In experiment [13] the test system is CAL-148. The description is as above. To be noted: incubation time: 72 h. Summed up: as §3
Experiment [14] relates to CAL-51. The experiment is described as above. Conditions: incubation time: 72 h. Put shortly:
as §3

Experiment [15] deals with CAL-85-1. Described as above. To be noted: incubation time: 72 h. Put shortly:
as §3

The subject of experiment [16] is DU-4475. The description is as above. Conditions: incubation time: 72 h. Summed up:
as §3

Experiment [17] relates to HCC1143. Described as above. Conditions: incubation time: 72 h. Summed up:
as §3

The subject of experiment [18] is HCC1599. The description is as above. To be noted: incubation time: 72 h. Put shortly:
as §3

The test system of experiment [19] is HCC1937. The description is as above. To be noted: incubation time: 72 h. Summed up:
as §3

Experiment [20] has as its system HDQ-P1. The experiment is described as above. Conditions: incubation time: 72 h. Put shortly:
as §3

In experiment [21] the test system is Hs578T. The experiment is described as above. To be noted: incubation time: 72 h. Put shortly: as §3
Experiment [22] concerns MCF-10A. The experiment is described as above. To be noted: incubation time: 72 h. Summed up:
as §3

The test system of experiment [23] is MDA-MB-231. The description is as above. Conditions: incubation time: 72 h. Put shortly: as §3
In experiment [24] the test system is MDA-MB-436. Described as above. To be noted: incubation time: 72 h. Summed up:
as §3

Experiment [25] has as its system MDA-MB-453. The description is as above. To be noted: incubation time: 72 h. Put shortly:
as §3

Experiment [26] deals with MDA-MB-468. Described as above. Conditions: incubation time: 72 h. Summed up:
as §3

In experiment [27] the test system is MFM-223. Described as above. Conditions: incubation time: 72 h. Put shortly:
as §3

For experiment [28], the system named is SK-BR-3. The experiment is described as above. Conditions: incubation time: 72 h. Summed up:
as §3

A value given as a limit tells only on which side of the number the result lay.

Turning to `O=P1(NCCCl)OCCCN1CCCl` (centres undefined) [Ifosfamide], the “EC50, CellTiter-Glo” value in experiment [1] was over 10000 nM.
In the case of `N#CCNC(=O)c1ccc(-c2ccnc(Nc3ccc(N4CCOCC4)cc3)n2)cc1` [Momelotinib], the results for the “EC50, CellTiter-Glo” value in [1] and in [2] were 5780 nM and 3480 nM, respectively.
In the case of `Cc1ccc(C(=O)Nc2ccc(CN3CCN(C)CC3)c(C(F)(F)F)c2)cc1C#Cc1cnc2cccnn12` [Ponatinib], the “EC50, CellTiter-Glo” value was 244 nM in experiment [1], 844 nM in [3] and over 1000 nM in experiment [2].
As to `NC(=O)Nc1cc(-c2cccc(F)c2)sc1C(=O)N[C@H]1CCCNC1` [AZD7762], the “EC50, CellTiter-Glo” value in experiment [1] worked out at 233 nM; in [3] it was 707 nM; in experiment [2] it was 596 nM.
The like results for `CN[C@@H]1C[C@H]2O[C@@](C)([C@@H]1OC)n1c3ccccc3c3c4c(c5c6ccccc6n2c5c31)C(=O)N[C@H]4O` [UCN-01] were, in that order, 43.4 nM, 77.5 nM and 93.2 nM.
With `CO[C@H]1/C=C\C=C(/C)C(=O)NC2=CC(=O)C(NCCN(C)C)=C(C[C@@H](C)C[C@H](OC)[C@H](O)[C@@H](C)/C=C(\C)[C@@H]1OC(N)=O)C2=O` [Alvespimycin], the entries for the “EC50, CellTiter-Glo” value in experiment [1], in experiment [3] and in experiment [2] were 48.8 nM, 48 nM and 32 nM, respectively.
For the compound `Cc1ccc(-n2nc(C(C)(C)C)cc2NC(=O)Nc2ccc(OCCN3CCOCC3)c3ccccc23)cc1` [Doramapimod], the “EC50, CellTiter-Glo” value in experiment [2] stood at 937 nM.
With `COc1cc([C@@H]2c3cc4c(cc3[C@@H](O[C@@H]3O[C@@H]5CO[C@@H](C)O[C@H]5[C@H](O)[C@H]3O)[C@H]3COC(=O)[C@H]23)OCO4)cc(OC)c1O` [Etoposide], the “EC50, CellTiter-Glo” value turned out to be 2810 nM in [1], 1090 nM in experiment [3] and 1730 nM in [2].
In the case of `CN[C@@H]1C[C@H]2O[C@@](C)([C@@H]1OC)n1c3ccccc3c3c4c(c5c6ccccc6n2c5c31)C(=O)N[C@H]4O` [UCN-01] (10000 nM), the normalised viability in experiment [4] is 3.64%; in experiment [5], 5.97%; in experiment [6], 1.96%; in experiment [7], 2.14%; in experiment [8], 2.76%; in experiment [9], 2.09%. The normalised response was determined as 4.43% in experiment [10]; 0.77% in [11]; 7.18% in [12]; 9.37% in [13]; 2.83% in experiment [14]; 0.55% in experiment [15]. In addition, the normalised response in experiment [16] amounted to 3.81%; in experiment [17], 8.19%; in [18] it was 13.7%; in experiment [19] it was 7.74%; in experiment [20], 2.74%; in experiment [21], 2.67%. Further, the normalised response in [22] stood at 0.69%; in experiment [23], 1.54%; in experiment [24], 7.46%; in experiment [25], 5.51%; in experiment [26], 1.36%; in experiment [27] it was 24.1%. The compound further displayed a normalised response in experiment [28] of 2.06%.
On to `Clc1ccc(Nc2nnc(Cc3ccncc3)c3ccccc23)cc1` [Vatalanib] (10000 nM), for which the normalised viability in experiment [4] is 84.5%; in [5], 99.4%; in experiment [6] it was 83.2%; in [7], 102%; in experiment [8], 90.6%; in experiment [9] it was 91.1%. The normalised response came out at 94.5% in experiment [10]; 95.5% in [11]; 104% in experiment [12]; 105% in experiment [13]; 115% in [14]; 106% in experiment [15]. For the same compound, the normalised response in experiment [16] came out at 95.2%; in experiment [17], 98.3%; in [18] it was 91.5%; in experiment [19], 96%; in experiment [20] it was 98.4%; in experiment [21], 106%. For the same compound, the normalised response in [22] stood at 110%; in experiment [23], 101%; in [24], 109%; in [25], 90.3%; in experiment [26], 75.2%; in experiment [27], 110%. Further, the normalised response in [28] was 95.5%.
Regarding `Oc1nc(-c2ccc(C(F)(F)F)cc2)nc2c1CSCC2` [XAV-939] (10000 nM), the normalised viability in experiment [4] came out at 76.9%; in experiment [5] it was 89.2%; in [6], 82.3%; in experiment [7] it was 100%; in experiment [8], 76.2%; in experiment [9] it was 71.5%. Also, the normalised response in experiment [10] is 73%; in [11] it was 90.5%; in experiment [12], 92.8%; in experiment [13], 94.4%; in experiment [14], 66.6%; in experiment [15], 95.8%. Also, the normalised response was 87.3% in experiment [16]; 91.4% in experiment [17]; 80.6% in [18]; 89.7% in experiment [19]; 86.7% in experiment [20]; 95.9% in experiment [21]. In addition, the normalised response came to 84.5% in experiment [22]; 74.5% in [23]; 91.8% in experiment [24]; 81.7% in [25]; 92.1% in experiment [26]; 89.4% in experiment [27]. The compound further gave a normalised response in experiment [28] of 84.5%.
Regarding `COc1cc2ncnc(Nc3ccc(F)c(Cl)c3)c2cc1NC(=O)/C=C/CN1CCCCC1` [Dacomitinib], the “EC50, CellTiter-Glo” value in experiment [1] was over 1000 nM; in [2] it was 179 nM.
Consider `C[C@@H](Oc1cc(-c2cnn(C3CCNCC3)c2)cnc1N)c1c(Cl)ccc(F)c1Cl` [Crizotinib], for which the “EC50, CellTiter-Glo” value in [2] was over 1000 nM.
As to `CNCc1ccc(-c2[nH]c3cc(F)cc4c3c2CCNC4=O)cc1` [Rucaparib], the “EC50, CellTiter-Glo” value in experiment [2] worked out at 1710 nM.
With `Cc1ccc(C(=O)N(CCCN)[C@@H](c2oc3cc(Cl)ccc3c(=O)c2Cc2ccccc2)C(C)C)cc1`, in [3], the “EC50, CellTiter-Glo” value came out at 0.24 nM.
